Results: patent US20210341448A1, “SCREENING METHOD FOR THERAPEUTIC DRUG OR PROPHYLACTIC DRUG FOR TAUOPATHY AND DIAGNOSTIC METHOD FOR TAUOPATHY” (National Center for Geriatrics and Gerontology, priority 2018, published 2021)

What was measured:
[1] = test system: brain slice specimen (hippocampus/entorhinal cortex complex); assay: Measurement of synapse transmission efficiency (fiber-volley/fEPSP) in brain slice specimens; conditions: aging mouse brain slice exposed to 10 μg/ml for 2 to 3 hours, vs aCSF negative control; p<0.0001
Protocol: Brain slice specimens from mice were prepared by the following procedure to evaluate impacts by the tau oligomer on synapse transmission efficiency. 20- to 23-month-old C57BL/6 mice (C57BL/6J or C57BL/6N, male) were cervically dislocated and decapitated to isolate the brain. The obtained brain was thoroughly cooled in aCSF (124 mM of NaCl, 3 mM of KCl, 26 mM of NaHCO3, 1.25 mM of NaH2PO4, 2 mM of CaCl2, 1 mM of MgSO4, 10 mM of D-glucose) bubbled with a 95% O2/5% CO2 mixed gas, then dissected at the center of the cerebrum along the coronal plane, and further the dissected posterior site of the brain was sliced along the horizontal cross sections to a thickness of 350 μm using a vibratome (Leica, VT-1200S). […]
The brain slice specimen was moved to a measurement chamber through which aCSF was perfused, and electric pulse stimulation of 1.5, 2, 3, or 4 nA was applied to record induced potential changes for the measurement of synapse strength from […]. […] The recorded waveform was analyzed using a self-made analysis software to calculate an amplitude of fiber-volley and an amplitude of excitatory postsynaptic potential (fEPSP) at each electric pulse stimulation.

membrane protein (NMDAR) = assay: Membrane protein-based sandwich ELISA; type: binding, mouse
Protocol: Pellets of the membrane protein obtained from tau knockout brain by the procedure of the above (7-1) were dissolved in 2% cholic acid or 1% deoxycholate/buffer (50 mM of HEPES, 150 mM of NaCl, pH 7.4), and the solution was centrifuged at 4° C., 150,000×g for 30 minutes to thereby collect the supernatant to use as a membrane protein solution. The obtained membrane protein solution was applied to an ELISA plate (Sumitomo Bakelite Co., Ltd., MS-8596F) and incubated at 4° C. for 60 minutes to thereby coat the plate with the membrane protein. After washing with wash solution (0.004 to 0.008% MNG-3, 50 mM of HEPES, pH 7.4), blocking was done by adding 1% FBS-containing wash solution and incubating at 4° C. for 60 minutes. The solvent of the HT-tau oligomer sample prepared in the above (1-4) was replaced with the wash solution using a protein concentrator (10K MWCO, Pierce, 88526) to thereby prepare a tau oligomer solution of 10^−16 to 10^−6 g/ml. These solutions were applied to the plate and incubated at 4° C. for 15 to 60 minutes. Then, the plate was washed thoroughly with the wash solution and a 5% skim milk-containing wash solution was added, followed by incubating at room temperature for 30 minutes to thereby block the protein. After washing using the wash solution, an anti-HaloTag antibody/wash solution (1:1000 dilution) was added and incubated at room temperature for 30 minutes. Subsequently, the plate was washed with the wash solution, an HRP-labelled secondary antibody/wash solution (Invitrogen, A27036) (1:5000 dilution) was added and incubated at room temperature for 30 minutes. Then, chromogenic reactions were carried out using an Ultra TMB solution (Thermo Fisher Scientific, 34028) to detect the tau oligomers bound to the membrane protein.

NMDAR = target: T1, NMDAR (Mus musculus, UniProt P35436+P35438+Q01097); assay: Pull-down assay of HT-tau oligomer with membrane protein of tau knockout mouse brain; type: binding; conditions: HT-tau oligomers immobilized on HaloTag beads, western blot anti-NR1
T1 construct: from tissue
Protocol: Whether or not the tau oligomer and NMDAR directly bind and interact was confirmed by a pull-down assay using the HT-tau oligomer. Magne™ HaloTag beads (Promega Corporation, #G728A) (50 mg) were added to the HT-tau oligomer sample (100 μl) prepared in the above (1-4), and a binding reaction was carried out at 4° C. for 12 hours to thereby immobilize the HT-tau oligomers on the beads. Additionally, brain slice specimens were prepared from tau knockout mice (B6.129X1-Mapt^tm1Hnd/J, Jackson Laboratory) by the same procedure as in the above (2-1) and were homogenized in 50-fold volume of the lysis buffer (4 mM of HEPES, 2 mM of EGTA, 0.32 M of sucrose, 1% Protease Inhibitor Cocktail, 1% Phosphatase Inhibitor Cocktail (Nacalai Tesque Inc., #07575-51)), and the lysate was centrifuged at 4° C., 12,000×g for 15 minutes to thereby collect pellets. The obtained pellets were dissolved in a 2% cholic acid or 1% deoxycholate/TBS solution (25 mM of Tris-HCl, 150 mM of NaCl, pH 7.4) and the resultant was used as a membrane protein solution. […] The obtained tau oligomer-membrane protein complexes were applied to SDS-PAGE electrophoresis, and NMDARs were detected by the western blot. […]

T1 sequence (P35436 23-1464, other chains not shown): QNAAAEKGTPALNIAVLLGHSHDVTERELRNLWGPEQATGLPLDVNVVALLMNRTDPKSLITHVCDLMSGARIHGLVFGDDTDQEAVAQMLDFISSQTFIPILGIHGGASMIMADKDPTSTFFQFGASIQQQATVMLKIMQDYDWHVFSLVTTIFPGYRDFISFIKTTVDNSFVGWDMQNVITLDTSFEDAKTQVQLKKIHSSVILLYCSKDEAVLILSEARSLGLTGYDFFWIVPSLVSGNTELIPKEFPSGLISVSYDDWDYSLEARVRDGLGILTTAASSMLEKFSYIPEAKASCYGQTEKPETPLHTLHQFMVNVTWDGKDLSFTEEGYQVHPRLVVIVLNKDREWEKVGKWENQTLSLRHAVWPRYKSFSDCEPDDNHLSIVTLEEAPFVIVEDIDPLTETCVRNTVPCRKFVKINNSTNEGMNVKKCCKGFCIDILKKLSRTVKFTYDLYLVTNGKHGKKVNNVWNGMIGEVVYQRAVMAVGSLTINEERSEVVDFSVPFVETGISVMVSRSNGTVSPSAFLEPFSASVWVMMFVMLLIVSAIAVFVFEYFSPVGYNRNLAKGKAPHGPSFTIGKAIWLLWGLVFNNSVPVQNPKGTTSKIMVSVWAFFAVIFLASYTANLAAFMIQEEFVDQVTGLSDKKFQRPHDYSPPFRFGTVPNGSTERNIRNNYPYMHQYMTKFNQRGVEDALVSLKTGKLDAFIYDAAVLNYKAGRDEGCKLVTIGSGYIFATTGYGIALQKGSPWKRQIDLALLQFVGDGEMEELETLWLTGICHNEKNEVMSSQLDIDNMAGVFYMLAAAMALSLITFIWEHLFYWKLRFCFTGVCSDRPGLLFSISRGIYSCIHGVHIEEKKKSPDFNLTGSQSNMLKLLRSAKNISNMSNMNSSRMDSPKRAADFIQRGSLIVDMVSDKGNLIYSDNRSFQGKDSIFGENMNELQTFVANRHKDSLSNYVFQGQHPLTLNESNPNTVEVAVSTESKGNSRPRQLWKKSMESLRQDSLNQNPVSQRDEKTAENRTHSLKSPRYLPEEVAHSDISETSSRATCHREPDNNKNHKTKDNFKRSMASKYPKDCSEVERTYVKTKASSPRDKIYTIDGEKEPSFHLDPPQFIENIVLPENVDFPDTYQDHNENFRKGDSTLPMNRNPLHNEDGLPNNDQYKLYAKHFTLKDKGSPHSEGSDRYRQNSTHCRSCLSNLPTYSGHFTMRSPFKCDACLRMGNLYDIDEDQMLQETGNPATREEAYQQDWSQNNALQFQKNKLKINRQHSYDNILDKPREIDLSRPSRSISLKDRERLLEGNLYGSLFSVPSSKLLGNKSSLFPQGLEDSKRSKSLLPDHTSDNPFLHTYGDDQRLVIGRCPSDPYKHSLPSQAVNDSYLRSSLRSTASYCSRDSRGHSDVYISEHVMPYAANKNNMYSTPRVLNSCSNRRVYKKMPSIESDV
T1 sequence (Q01097 27-1482, other chains not shown): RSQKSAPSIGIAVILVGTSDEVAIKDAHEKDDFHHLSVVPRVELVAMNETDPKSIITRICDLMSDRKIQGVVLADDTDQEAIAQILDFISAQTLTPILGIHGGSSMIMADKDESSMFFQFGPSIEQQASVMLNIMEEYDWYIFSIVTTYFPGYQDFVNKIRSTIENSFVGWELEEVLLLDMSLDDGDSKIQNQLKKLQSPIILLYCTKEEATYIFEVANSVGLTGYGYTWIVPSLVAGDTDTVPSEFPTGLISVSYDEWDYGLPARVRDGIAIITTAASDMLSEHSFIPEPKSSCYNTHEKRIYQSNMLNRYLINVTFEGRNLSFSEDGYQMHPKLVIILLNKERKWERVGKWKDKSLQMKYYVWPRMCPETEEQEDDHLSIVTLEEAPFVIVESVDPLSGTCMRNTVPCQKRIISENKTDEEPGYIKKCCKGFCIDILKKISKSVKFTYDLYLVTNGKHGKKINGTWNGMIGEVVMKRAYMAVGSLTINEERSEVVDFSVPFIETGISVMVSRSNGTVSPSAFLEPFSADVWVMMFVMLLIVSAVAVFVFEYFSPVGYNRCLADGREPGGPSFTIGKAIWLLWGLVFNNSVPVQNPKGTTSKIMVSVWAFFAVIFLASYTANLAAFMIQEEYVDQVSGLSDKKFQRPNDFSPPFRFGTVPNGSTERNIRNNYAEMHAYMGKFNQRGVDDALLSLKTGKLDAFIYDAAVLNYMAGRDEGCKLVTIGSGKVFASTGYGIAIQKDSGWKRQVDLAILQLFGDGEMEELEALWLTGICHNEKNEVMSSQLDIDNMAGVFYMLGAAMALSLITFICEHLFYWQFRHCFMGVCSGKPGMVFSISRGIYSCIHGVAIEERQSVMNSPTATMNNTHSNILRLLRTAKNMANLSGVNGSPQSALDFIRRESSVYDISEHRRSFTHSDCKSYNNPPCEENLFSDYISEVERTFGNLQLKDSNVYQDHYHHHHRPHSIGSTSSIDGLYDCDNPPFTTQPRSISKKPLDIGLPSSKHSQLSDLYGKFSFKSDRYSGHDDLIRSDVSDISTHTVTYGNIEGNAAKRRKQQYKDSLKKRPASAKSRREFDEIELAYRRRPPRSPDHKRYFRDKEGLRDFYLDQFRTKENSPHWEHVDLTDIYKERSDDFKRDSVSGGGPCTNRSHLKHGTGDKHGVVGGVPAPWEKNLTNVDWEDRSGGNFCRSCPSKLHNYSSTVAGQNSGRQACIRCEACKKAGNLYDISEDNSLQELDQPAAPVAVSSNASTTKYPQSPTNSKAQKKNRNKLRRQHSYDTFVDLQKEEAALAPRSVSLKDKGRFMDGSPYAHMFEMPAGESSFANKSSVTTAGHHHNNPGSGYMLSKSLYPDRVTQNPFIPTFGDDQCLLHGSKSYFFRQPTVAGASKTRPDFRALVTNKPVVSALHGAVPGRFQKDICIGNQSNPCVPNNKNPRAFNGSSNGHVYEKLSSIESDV

binding of the tau oligomer to membrane protein (membrane protein (NMDAR); tau oligomer solution of 10^−11 g/ml or lower): detected
binding of NMDAR in pull-down assay (NMDAR): directly bound
Substance: tau oligomer: polymer of human tau 2N4R monomers, polymerized with mouse brain extract and ATP, collected as pellets
synapse transmission efficiency (fiber-volley/fEPSP ratio) [1]: significantly reduced
amount of tau oligomer bound to membrane protein (membrane protein (NMDAR); tau oligomer solution of 10^−8 g/ml or higher): increased in a concentration-dependent manner
